Measurements reported in patent US9540392B2, “Thienopyrimidines” (BAYER PHARMA AKTIENGESELLSCHAFT, priority 2012, dated 2017).
pIC50: −log10 of the molar value.

Molecular target: T1, human full-length MKNK1 (Homo sapiens, UniProt Q9BUB5, T385D)
T1 construct: GST (N); purchased Carna Biosciences 02-145; host or cells: insect cells (baculovirus expression system)
Assay: MKNK1 kinase high ATP assay (TR-FRET)
Type: biochemical
Conditions: 2 mM ATP, after preincubation with MKNK1; read-out: MKNK1 IC50 (MKNK1 high ATP)
In short: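 Compound was preincubated 15 min at 22° C. with MKNK1 in 50 mM HEPES pH 7.5, 5 mM MgCl2, 1.0 mM DTT, then the reaction ran 30 min at 22° C. with 2 mM ATP and 0.06 μM biotinylated peptide (final).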

T1 sequence (Q9BUB5 1-424 isoform Q9BUB5-2 T344D): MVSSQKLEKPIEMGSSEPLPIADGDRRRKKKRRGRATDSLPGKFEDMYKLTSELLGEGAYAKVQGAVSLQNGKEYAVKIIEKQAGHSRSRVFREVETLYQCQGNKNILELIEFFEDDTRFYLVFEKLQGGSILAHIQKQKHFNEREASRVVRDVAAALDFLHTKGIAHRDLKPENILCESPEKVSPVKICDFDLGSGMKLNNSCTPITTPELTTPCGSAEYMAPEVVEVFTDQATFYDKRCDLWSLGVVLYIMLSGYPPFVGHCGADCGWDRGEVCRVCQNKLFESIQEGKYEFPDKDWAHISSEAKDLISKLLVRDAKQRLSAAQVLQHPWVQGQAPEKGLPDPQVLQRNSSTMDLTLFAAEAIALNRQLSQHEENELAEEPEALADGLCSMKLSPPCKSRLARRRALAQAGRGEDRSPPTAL

SMILES	pIC50
CN1CCN(C(=O)C2CCc3c(sc4ncnc(Nc5ccc6[nH]ncc6c5)c34)C2)CC1CCO (racemic) [Example 197, (RS)-[3-(2-hydroxyethyl)-4-methylpiperazin-1-yl][4-(1H-indazol-5-ylamino)-5,6,7,8-tetrahydro[1]benzothieno[2,3-d]pyrimidin-7-yl]methanone]	8.10
CN(Cc1ccn(C)n1)C(=O)C1CCc2c(sc3ncnc(Nc4ccc5[nH]ncc5c4)c23)C1 (racemic) [Example 137, (RS)-4-(1H-indazol-5-ylamino)-N-methyl-N-[(1-methyl-1H-pyrazol-3-yl)methyl]-5,6,7,8-tetrahydro[1]benzothieno[2,3-d]pyrimidine-7-carboxamide]	7.81
CN(C)C(=O)C1CCc2c(sc3ncnc(Nc4cc5cn[nH]c5cc4OC(F)(F)F)c23)C1 (racemic) [Example 249, (RS)—N,N-Dimethyl-4-{[6-(trifluoromethoxy)-1H-indazol-5-yl]amino}-5,6,7,8-tetrahydro[1]benzothieno[2,3-d]pyrimidine-7-carboxamide]	7.82
O=C(CN1CCN(C(=O)C2CCc3c(sc4ncnc(Nc5ccc6[nH]ncc6c5)c34)C2)CC1)N1CCCC1 (racemic) [Example 201, (RS)-2-(4-{[4-(1H-indazol-5-ylamino)-5,6,7,8-tetrahydro[1]benzothieno[2,3-d]pyrimidin-7-yl]carbonyl}piperazin-1-yl)-1-(pyrrolidin-1-yl)ethanone]	7.74
O=C(C1CCc2c(sc3ncnc(Nc4ccc5[nH]ncc5c4)c23)C1)N1CCC(c2ccccc2)CC1 (racemic) [Example 127, (RS)-[4-(1H-indazol-5-ylamino)-5,6,7,8-tetrahydro[1]benzothieno[2,3-d]pyrimidin-7-yl](4-phenylpiperidin-1-yl)methanone]	7.97
COC(=O)N1CCN(C(=O)C2CCc3c(sc4ncnc(Nc5ccc6[nH]ncc6c5)c34)C2)CC1 (racemic) [Example 160, (RS)-methyl4-{[4-(1H-indazol-5-ylamino)-5,6,7,8-tetrahydro[1]benzothieno[2,3-d]pyrimidin-7-yl]carbonyl}piperazine-1-carboxylate]	7.51
O=C(C1CCc2c(sc3ncnc(Nc4ccc5[nH]ncc5c4)c23)C1)N1CCCCC1 (racemic) [Example 82, (RS)-[4-(1H-indazol-5-ylamino)-5,6,7,8-tetrahydro[1]benzothieno[2,3-d]pyrimidin-7-yl](piperidin-1-yl)methanone]	7.84
COc1cc2[nH]ncc2cc1Nc1ncnc2sc3c(c12)CCC(C(=O)N(C)CCO)C3 (racemic) [Example 172, (RS)—N-(2-Hydroxyethyl)-4-[(6-methoxy-1H-indazol-5-yl)amino]-N-methyl-5,6,7,8-tetrahydro[1]benzothieno[2,3-d]pyrimidine-7-carboxamide]	9.40
CCOc1cc2[nH]ncc2cc1Nc1ncnc2sc3c(c12)CCC(C(=O)N(C)CC1CC1)C3 (racemic) [Example 240, (RS)—N-(Cyclopropylmethyl)-4-[(6-ethoxy-1H-indazol-5-yl)amino]-N-methyl-5,6,7,8-tetrahydro[1]benzothieno[2,3-d]pyrimidine-7-carboxamide]	8.96
O=C(NC1CCOCC1)C1CCc2c(sc3ncnc(Nc4ccc5[nH]ncc5c4)c23)C1 (racemic) [Example 123, (RS)-4-(1H-indazol-5-ylamino)-N-(tetrahydro-2H-pyran-4-yl)-5,6,7,8-tetrahydro[1]benzothieno[2,3-d]pyrimidine-7-carboxamide]	7.95
Cc1n[nH]c2ccc(Nc3ncnc4sc5c(c34)CCC(C(=O)O)C5)cc12 (racemic) [Example 62, (RS)-4-[(3-Methyl-1H-indazol-5-yl)amino]-5,6,7,8-tetrahydro[1]benzothieno[2,3-d]pyrimidine-7-carboxylic acid]	5.85
CN(C)CCN(Cc1ccccc1)C(=O)C1CCc2c(sc3ncnc(Nc4ccc5[nH]ncc5c4)c23)C1 (racemic) [Example 84, (RS)-N-benzyl-N-[2-(dimethylamino)ethyl]-4-(1H-indazol-5-ylamino)-5,6,7,8-tetrahydro[1]benzothieno[2,3-d]pyrimidine-7-carboxamide]	8.26
COc1cc2[nH]ncc2cc1Nc1ncnc2sc3c(c12)CCC(C(=O)N1C[C@H](O)[C@@H](O)C1)C3 (mixture of isomers) [Example 244, [(3R,4R)-3,4-Dihydroxypyrrolidin-1-yl]{(7RS)-4-[(6-methoxy-1H-indazol-5-yl)amino]-5,6,7,8-tetrahydro[1]benzothieno[2,3-d]pyrimidin-7-yl}methanone]	9.40
O=C(C1CCc2c(sc3ncnc(Nc4ccc5[nH]ncc5c4)c23)C1)N1CC=CC1 (racemic) [Example 184, (RS)-2,5-dihydro-1H-pyrrol-1-yl[4-(1H-indazol-5-ylamino)-5,6,7,8-tetrahydro[1]benzothieno[2,3-d]pyrimidin-7-yl]methanone]	7.91
CCOc1cc2[nH]ncc2cc1Nc1ncnc2sc3c(c12)CCC(C(=O)N1CC[C@@H](O)C1)C3 (mixture of isomers) [Example 233, {(7RS)-4-[(6-Ethoxy-1H-indazol-5-yl)amino]-5,6,7,8-tetrahydro[1]benzothieno[2,3-d]pyrimidin-7-yl}[(3R)-3-hydroxypyrrolidin-1-yl]methanone]	9.30
CC(C)(C)CNC(=O)C1CCc2c(sc3ncnc(Nc4ccc5[nH]ncc5c4)c23)C1 (racemic) [Example 113, (RS)-N-(2,2-dimethylpropyl)-4-(1H-indazol-5-ylamino)-5,6,7,8-tetrahydro[1]benzothieno[2,3-d]pyrimidine-7-carboxamide]	7.69
CN(CCO)C(=O)C1CCc2c(sc3ncnc(Nc4ccc5[nH]ncc5c4)c23)C1 (centres unmarked) [Example 41, N-(2-Hydroxyethyl)-4-(1H-indazol-5-ylamino)-N-methyl-5,6,7,8-tetrahydro[1] benzothieno [2,3-d]pyrimidine-7-carboxamide]	8.10
NS(=O)(=O)c1ccc(CNC(=O)C2CCc3c(sc4ncnc(Nc5ccc6[nH]ncc6c5)c34)C2)cc1 (racemic) [Example 121, (RS)-4-(1H-indazol-5-ylamino)-N-(4-sulfamoylbenzyl)-5,6,7,8-tetrahydro[1]benzothieno[2,3-d]pyrimidine-7-carboxamide]	8.40
CN(C)C(=O)C1CCc2c(sc3ncnc(Nc4cc5cn[nH]c5cc4N(C)C)c23)C1 (racemic) [Example 251, (RS)-4-{[6-(Dimethylamino)-1H-indazol-5-yl]amino}-N,N-dimethyl-5,6,7,8-tetrahydro[1]benzothieno[2,3-d]pyrimidine-7-carboxamide]	9.70
CCOc1cc2[nH]ncc2cc1Nc1ncnc2sc3c(c12)CCC(C(=O)N1CCC(N(C)C)C1)C3 (racemic) [Example 258, [(3RS)-3-(Dimethylamino)pyrrolidin-1-yl]{(7RS)-4-[(6-ethoxy-1H-indazol-5-yl)amino]-5,6,7,8-tetrahydro[1]benzothieno[2,3-d]pyrimidin-7-yl}methanone]	9.40
O=C(NCC1CC1)C1CCc2c(sc3ncnc(Nc4ccc5[nH]ncc5c4)c23)C1 (centres unmarked) [Example 7, N-(Cyclopropylmethyl)-4-(1H-indazol-5-ylamino)-5,6,7,8-tetrahydro[1]benzothieno[2,3-d]pyrimidine-7-carboxamide]	8.22
O=C(Nc1ccccn1)C1CCc2c(sc3ncnc(Nc4ccc5[nH]ncc5c4)c23)C1 (racemic) [Example 99, (RS)-4-(1H-indazol-5-ylamino)-N-(pyridin-2-yl)-5,6,7,8-tetrahydro[1]benzothieno[2,3-d]pyrimidine-7-carboxamide]	7.56
O=C(C1CCc2c(sc3ncnc(Nc4ccc5[nH]ncc5c4)c23)C1)N1CCN(C2CCCC2)CC1 (racemic) [Example 131, (RS)-(4-cyclopentylpiperazin-1-yl)[4-(1H-indazol-5-ylamino)-5,6,7,8-tetrahydro[1]benzothieno[2,3-d]pyrimidin-7-yl]methanone]	7.87
CC(C)Oc1cc2[nH]ncc2cc1Nc1ncnc2sc3c(c12)CCC(C(=O)N1CC2(CCO2)C1)C3 (racemic) [Example 259, (RS)-{4-[(6-Isopropoxy-1H-indazol-5-yl)amino]-5,6,7,8-tetrahydro[1]benzothieno[2,3-d]pyrimidin-7-yl}(1-oxa-6-azaspiro[3.3]hept-6-yl)methanone]	8.72
COc1cc2[nH]ncc2cc1Nc1ncnc2sc3c(c12)CCC(C(=O)N1CC2(CCO2)C1)C3 (racemic) [Example 260, (RS)-{4-[(6-Methoxy-1H-indazol-5-yl)amino]-5,6,7,8-tetrahydro[1]benzothieno[2,3-d]pyrimidin-7-yl}(1-oxa-6-azaspiro[3.3]hept-6-yl)methanone]	9.15
O=C(C1CCc2c(sc3ncnc(Nc4ccc5[nH]ncc5c4)c23)C1)N1CCN2CCCCC2C1 (racemic) [Example 192, (RS)-[4-(1H-indazol-5-ylamino)-5,6,7,8-tetrahydro[1]benzothieno[2,3-d]pyrimidin-7-yl](octahydro-2H-pyrido[1,2-a]pyrazin-2-yl)methanone]	7.82
CN(C)C(=O)CN(C)C(=O)C1CCc2c(sc3ncnc(Nc4ccc5[nH]ncc5c4)c23)C1 (racemic) [Example 120, (RS)-N-[2-(dimethylamino)-2-oxoethyl]-4-(1H-indazol-5-ylamino)-N-methyl-5,6,7,8-tetrahydro[1]benzothieno[2,3-d]pyrimidine-7-carboxamide]	8.08
O=C(NCc1ccc(F)cc1)C1CCc2c(sc3ncnc(Nc4ccc5[nH]ncc5c4)c23)C1 (centres unmarked) [Example 24, N-(4-Fluorobenzyl)-4-(1H-indazol-5-ylamino)-5,6,7,8-tetrahydro[1] benzothieno [2,3-d]pyrimidine-7-carboxamide]	8.52
CC1CCCN(C(=O)C2CCc3c(sc4ncnc(Nc5ccc6[nH]ncc6c5)c34)C2)C1 (racemic) [Example 104, (RS)-[4-(1H-indazol-5-ylamino)-5,6,7,8-tetrahydro[1]benzothieno[2,3-d]pyrimidin-7-yl](3-methylpiperidin-1-yl)methanone]	8.13
